Reference: paper PMC10590756, “Glutarate regulates T cell metabolism and anti-tumour immunity” (Nature Metabolism, 2023)

What was measured:
human full-length KDM6A = molecular target: T1, human full-length KDM6A (Homo sapiens, UniProt O15550); experiment: Cell-free KDM6A activity assay (^14CO2 release); assay type: biochemical
T1 construct: The human full-length HIF-P4H-1 and KDM6A enzymes were recombinantly produced using Sf21 insect cells; made in house; host or cells: Sf21 insect cells (baculovirus, pVL1393)
T1 sequence (O15550 whole entry): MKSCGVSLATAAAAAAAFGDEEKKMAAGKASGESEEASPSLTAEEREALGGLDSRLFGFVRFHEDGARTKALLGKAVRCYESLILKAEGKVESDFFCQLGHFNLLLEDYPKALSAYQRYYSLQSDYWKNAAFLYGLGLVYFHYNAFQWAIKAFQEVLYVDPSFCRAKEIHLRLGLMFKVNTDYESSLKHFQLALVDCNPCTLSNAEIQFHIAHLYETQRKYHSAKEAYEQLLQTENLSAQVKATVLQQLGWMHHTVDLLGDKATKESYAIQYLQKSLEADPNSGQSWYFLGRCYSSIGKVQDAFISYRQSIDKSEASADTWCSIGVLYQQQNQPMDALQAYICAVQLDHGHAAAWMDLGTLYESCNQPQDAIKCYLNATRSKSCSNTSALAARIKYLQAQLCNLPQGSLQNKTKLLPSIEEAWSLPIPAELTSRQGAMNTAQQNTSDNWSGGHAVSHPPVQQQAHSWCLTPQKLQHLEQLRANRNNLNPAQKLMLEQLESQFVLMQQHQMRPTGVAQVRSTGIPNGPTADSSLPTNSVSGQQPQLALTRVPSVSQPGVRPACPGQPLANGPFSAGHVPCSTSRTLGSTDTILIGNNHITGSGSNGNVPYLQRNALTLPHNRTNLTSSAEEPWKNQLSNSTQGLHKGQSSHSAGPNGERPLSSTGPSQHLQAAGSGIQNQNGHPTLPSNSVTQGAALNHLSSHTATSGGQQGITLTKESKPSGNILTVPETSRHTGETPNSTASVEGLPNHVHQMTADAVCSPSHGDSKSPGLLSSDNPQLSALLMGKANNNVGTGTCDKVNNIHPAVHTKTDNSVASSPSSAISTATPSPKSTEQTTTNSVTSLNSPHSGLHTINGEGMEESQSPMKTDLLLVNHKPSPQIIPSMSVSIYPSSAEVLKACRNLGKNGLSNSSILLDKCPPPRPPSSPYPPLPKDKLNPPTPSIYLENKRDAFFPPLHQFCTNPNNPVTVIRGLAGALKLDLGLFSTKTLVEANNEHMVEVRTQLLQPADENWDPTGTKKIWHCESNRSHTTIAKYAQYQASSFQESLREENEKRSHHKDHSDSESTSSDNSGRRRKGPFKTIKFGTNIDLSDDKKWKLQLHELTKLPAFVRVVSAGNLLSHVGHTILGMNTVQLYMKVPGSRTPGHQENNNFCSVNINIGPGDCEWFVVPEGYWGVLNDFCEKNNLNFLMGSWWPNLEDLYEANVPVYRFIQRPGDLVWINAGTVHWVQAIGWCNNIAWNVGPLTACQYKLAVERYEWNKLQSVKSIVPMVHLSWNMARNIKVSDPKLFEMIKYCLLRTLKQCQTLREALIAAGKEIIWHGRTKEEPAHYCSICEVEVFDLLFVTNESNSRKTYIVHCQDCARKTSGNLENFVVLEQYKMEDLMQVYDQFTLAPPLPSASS
Excerpt: (§1) The human full-length HIF-P4H-1 and KDM6A enzymes were recombinantly produced using Sf21 insect cells and the enzymes were purified with anti-FLAG M2 affinity gel as described previously[68],[69]. Briefly, the C terminus FLAG-tagged human HIF-P4H1-2 and KDM6A were generated using PCR and subcloned into pAcG3X and pVL1393 baculovirus expression vectors, respectively. The recombinant baculoviruses were generated by transducing the bacmid DNA into Spodoptera frugiperda Sf9 cells using BaculoGold DNA (HIF-P4H1-2, BD Biosciences) and BacMagic-3 DNA kit (for KDM6A, Novagen). Recombinant proteins were produced by infecting Sf21 insect cells with the corresponding amplified baculoviruses for 72 h at 27 °C. Cells were homogenized in a buffer containing 10 mM Tris, 150 mM NaCl, 100 mM glycine, 0.1% (v/v) Triton X-100, pH 7.8, and a protease inhibitor cocktail tablet without EDTA. The cell lysates were centrifuged at 21,000g for 30 min; the soluble fractions containing the FLAG-tagged proteins were affinity-purified using the anti-FLAG M2 affinity gel (Sigma-Aldrich). […] Protein concentration was measured with NanoDrop and proteins were analysed by SDS–PAGE followed by Coomassie brilliant blue staining. […] The IC50 value of the glutarate analogue was calculated from the inhibition saturation curves.

[1] = molecular target: T2, human full-length HIF-P4H-1 (Homo sapiens, UniProt Q96KS0); experiment: Cell-free HIF-P4H-1 activity assay (^14CO2 release); assay type: biochemical
T2 construct: The human full-length HIF-P4H-1 and KDM6A enzymes were recombinantly produced using Sf21 insect cells; made in house; host or cells: Sf21 insect cells (baculovirus)
T2 sequence (Q96KS0 whole entry): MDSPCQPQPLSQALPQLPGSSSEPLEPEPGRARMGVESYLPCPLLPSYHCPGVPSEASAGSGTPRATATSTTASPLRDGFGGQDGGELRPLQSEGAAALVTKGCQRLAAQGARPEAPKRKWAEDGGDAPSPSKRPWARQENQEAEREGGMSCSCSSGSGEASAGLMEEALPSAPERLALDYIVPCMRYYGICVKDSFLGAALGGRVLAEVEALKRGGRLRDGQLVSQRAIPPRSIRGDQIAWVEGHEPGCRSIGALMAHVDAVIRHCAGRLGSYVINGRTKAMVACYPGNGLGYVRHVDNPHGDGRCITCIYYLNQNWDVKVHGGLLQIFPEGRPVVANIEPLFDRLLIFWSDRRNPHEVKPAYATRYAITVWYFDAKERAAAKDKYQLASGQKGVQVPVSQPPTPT
Excerpt: as §1

[2] = system: B16F10-OVA melanoma tumours; experiment: B16F10-OVA tumour growth and infiltration model; assay type: in vivo, C57BL/6J mice
Experimental: Seven to 10-week-old male C57BL/6J mice were inoculated subcutaneously with 1.0 × 10^6 B16F10-OVA. Animals were assigned randomly to each experimental group. Four days after inoculation, mice were treated with a peritoneal injection of 0.2 mg DEG (approximately 10 mg kg^−1). Treatment was repeated every 2–3 days until day 28. Tumour volume was measured every 2–3 days with electronic callipers until day 30. Peripheral blood was collected from the tail vein at day 7 and 14 days after tumour inoculation and analysed using flow cytometry. On day 14, tumours were dissected and dissociated using the Tumor Dissociation Kit (catalogue no. 130-095-929, Miltenyi Biotec), according to the manufacturer’s instructions. Spleen and the tumour-draining lymph node were mashed in cell strainers. The tumour, spleen and draining lymph node single-cell suspensions were stained with fluorochrome-labelled antibodies and analysed using flow cytometry. The tumour experiments using C57BL/6J mice were carried out in accordance with the ethical regulations of the UK Home Office and the maximal tumour burden of […] was not exceeded (mice were euthanized when tumour volume exceeded […]).

[3] = molecular target: T3, PDHE2 lipoate in human CD8^+ T cells (Homo sapiens, UniProt P10515); experiment: PDHE2 lipoate western blot; assay type: cell-based; details: 500 µM DEG, 24 h
T3 construct: We treated human CD8^+ T cells with DEG and observed reduced PDHE2 lipoate level; endogenous in cells; host or cells: primary human CD8+ T cells
T3 sequence (P10515 87-647): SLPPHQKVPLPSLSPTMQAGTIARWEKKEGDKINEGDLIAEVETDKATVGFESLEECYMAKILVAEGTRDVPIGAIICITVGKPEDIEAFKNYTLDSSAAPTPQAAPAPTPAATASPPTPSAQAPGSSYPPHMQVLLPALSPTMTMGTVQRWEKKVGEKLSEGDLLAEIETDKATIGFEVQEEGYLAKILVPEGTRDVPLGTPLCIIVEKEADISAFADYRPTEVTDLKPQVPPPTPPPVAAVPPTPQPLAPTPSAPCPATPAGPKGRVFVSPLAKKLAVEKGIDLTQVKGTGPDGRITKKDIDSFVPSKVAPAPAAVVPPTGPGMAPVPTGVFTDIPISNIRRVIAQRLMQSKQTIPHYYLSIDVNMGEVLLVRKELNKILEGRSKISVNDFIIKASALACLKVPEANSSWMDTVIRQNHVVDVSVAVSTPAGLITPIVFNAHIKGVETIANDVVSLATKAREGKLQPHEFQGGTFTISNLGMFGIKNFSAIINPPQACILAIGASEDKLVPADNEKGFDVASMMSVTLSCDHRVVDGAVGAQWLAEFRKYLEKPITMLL
Experimental: Lipoic acid western blotting was performed as above with the following alterations: blocking buffer and secondary antibody buffer (5% milk plus 1% fatty acid free bovine serum albumin (BSA) (catalogue no. BP9704100, Thermo Fisher Scientific) prepared in PBS plus 0.05% Tween-20); and primary antibody buffer (2% fatty acid free BSA prepared in PBS plus 0.05% Tween-20). Lipoic acid antibody was used at a concentration of 1:2,000 (catalogue no. 437695, Sigma-Aldrich). Data were analysed using the iBright Analysis Software v.4.0.1 or ImageJ.

CD8^+ T cells = experiment: Acetyl-CoA measurement; assay type: cell-based, human; details: 500 µM DEG, 30 min or 7 days
Experimental: Acetyl-CoA levels were determined using an acetyl-CoA assay kit (catalogue no. MAK039, Sigma-Aldrich). After culture, 2 × 10^6 cells per condition were collected, washed twice with ice-cold PBS and resuspended in 500 µl of the assay buffer. Following deproteinization by adding 2 µl 1M perchloric acid, samples were sonicated and the assay was performed according to the manufacturer’s instructions. Data were acquired on the FLUOstar Omega.

[4] = 14 days after tumour inoculation, relative to controls

| Compound | IC50 (human full-length KDM6A) | IC50 [1] | survival ([2]; 10 mg kg^−1 DEG intraperitoneally every 48–72 h, 1,000 mm^3 tumour volume as threshold) | tumour growth ([2]; 10 mg kg^−1 DEG intraperitoneally every 48–72 h from day 4) | peripheral blood CD8^+ T cells [2, 4] | tumour-infiltrating CD8^+ T cells [2, 4] | other immune populations ([2]; blood, tumour, spleen, tumour-draining lymph node, day 14) | circulating B cells ([2]; day 14) | exhaustion-associated markers (TIM3, PD1, LAG3, TOX) in tumour-infiltrating CD4^+ or CD8^+ cells ([2]; day 14) | memory-associated markers (CD62L and CD44) in tumour-infiltrating CD4^+ or CD8^+ cells ([2]; day 14) | PDHE2 lipoate level [3] | acetyl-CoA levels (CD8^+ T cells) |
| --- | --- | --- | --- | --- | --- | --- | --- | --- | --- | --- | --- | --- |
| O=C(O)CCCC(=O)O [glutarate, glutaric acid] | 600 µM | 2000 µM | – | – | – | – | – | – | – | – | – | – |
| CCOC(=O)CCCC(=O)OCC [DEG, Diethyl glutarate] | – | – | significantly increased survival | significantly slowed tumour growth | significant increase | significant increase | No changes | slight decrease | no changes | no changes | reduced | not lower |
